Measured values taken from ChEMBL document CHEMBL1136428, “Structure-activity relationships of novel anti-malarial agents. Part 6: N-(4-arylpropionylamino-3-benzoylphenyl)-[5-(4-nitrophenyl)-2-furyl]acrylic acid amides” (Bioorg Med Chem Lett, 2003).
pIC50: −log10 of the molar value.

Tested on: Plasmodium falciparum
Experiment: Anti-malarial activity against Plasmodium falciparum Dd2
Type: functional, organism-based

pIC50	SMILES
5.48	O=C(/C=C/c1ccc(-c2ccc([N+](=O)[O-])cc2)o1)Nc1ccc(NC(=O)CCc2ccc(O)cc2)c(C(=O)c2ccccc2)c1
6.20	O=C(/C=C/c1ccc(-c2ccc([N+](=O)[O-])cc2)o1)Nc1ccc(NC(=O)CCc2cccc(C(F)(F)F)c2)c(C(=O)c2ccccc2)c1
7.21	O=C(/C=C/c1ccc(-c2ccc([N+](=O)[O-])cc2)o1)Nc1ccc(NC(=O)CCc2ccc(C(F)(F)F)cc2)c(C(=O)c2ccccc2)c1
6.77	O=C(/C=C/c1ccc(-c2ccc([N+](=O)[O-])cc2)o1)Nc1ccc(NC(=O)CCc2ccc(Br)cc2)c(C(=O)c2ccccc2)c1
5.92	N[C@H](Cc1ccccc1)C(=O)Nc1ccc(NC(=O)/C=C/c2ccc(-c3ccc([N+](=O)[O-])cc3)o2)cc1C(=O)c1ccccc1
6.36	O=C(/C=C/c1ccc(-c2ccc([N+](=O)[O-])cc2)o1)Nc1ccc(NC(=O)CCc2ccc(F)cc2)c(C(=O)c2ccccc2)c1
5.85	O=C(/C=C/c1ccc(-c2ccc([N+](=O)[O-])cc2)o1)Nc1ccc(NC(=O)CCc2ccc([N+](=O)[O-])cc2)c(C(=O)c2ccccc2)c1
6.05	CC(C)(C)OC(=O)N[C@H](Cc1ccccc1)C(=O)Nc1ccc(NC(=O)/C=C/c2ccc(-c3ccc([N+](=O)[O-])cc3)o2)cc1C(=O)c1ccccc1
6.51	O=C(/C=C/c1ccc(-c2ccc([N+](=O)[O-])cc2)o1)Nc1ccc(NC(=O)CCc2ccccc2)c(C(=O)c2ccccc2)c1
6.15	NC(Cc1ccc(C(F)(F)F)cc1)C(=O)Nc1ccc(NC(=O)/C=C/c2ccc(-c3ccc([N+](=O)[O-])cc3)o2)cc1C(=O)c1ccccc1 (configuration not stated)
6.38	CC(C)(C)OC(=O)N[C@@H](Cc1ccccc1)C(=O)Nc1ccc(NC(=O)/C=C/c2ccc(-c3ccc([N+](=O)[O-])cc3)o2)cc1C(=O)c1ccccc1
5.96	O=C(/C=C/c1ccc(-c2ccc([N+](=O)[O-])cc2)o1)Nc1ccc(NC(=O)CCc2ccccc2C(F)(F)F)c(C(=O)c2ccccc2)c1
6.24	N[C@@H](Cc1ccccc1)C(=O)Nc1ccc(NC(=O)/C=C/c2ccc(-c3ccc([N+](=O)[O-])cc3)o2)cc1C(=O)c1ccccc1
6.36	Cc1ccc(CCC(=O)Nc2ccc(NC(=O)/C=C/c3ccc(-c4ccc([N+](=O)[O-])cc4)o3)cc2C(=O)c2ccccc2)cc1
6.89	O=C(/C=C/c1ccc(-c2ccc([N+](=O)[O-])cc2)o1)Nc1ccc(NC(=O)CCc2ccc(Cl)cc2)c(C(=O)c2ccccc2)c1
5.49	CC(C)(C)OC(=O)NC(Cc1ccc(C(F)(F)F)cc1)C(=O)Nc1ccc(NC(=O)/C=C/c2ccc(-c3ccc([N+](=O)[O-])cc3)o2)cc1C(=O)c1ccccc1 (configuration not stated)
5.89	COc1ccc(CCC(=O)Nc2ccc(NC(=O)/C=C/c3ccc(-c4ccc([N+](=O)[O-])cc4)o3)cc2C(=O)c2ccccc2)cc1
